Results as given in patent publication US6121489A (priority 1997, dated 2000).

Molecular target: α-glucosidase from bakers yeast
Experiment: α-Glucosidase inhibition assay, p-nitrophenyl-α-D-glucopyranoside substrate, 96-well format
Assay type: biochemical
Settings: concentration necessary for 50% enzyme inhibition

**Q.** For `CC(O)C(C(=O)NCc1ccccc1)N(Cc1ccc2ccccc2c1)C(=O)C(N)Cc1cn(Cc2ccc3ccccc3c2)c2ccccc12` (stereo not drawn) [R'-(1-hydroxyethyl)], which IC50 is on record?
**A.** Its IC50 is 678 µM.

**Q.** With `CC(O)C(C(=O)NCc1ccccc1)N(Cc1ccc2ccccc2c1)C(=O)C(N)Cc1cn(Cc2ccc3ccccc3c2)c2ccccc12` (stereo not drawn) [R-(1-hydroxyethyl)] as the compound, how does the IC50 read?
**A.** Its IC50 is > 1000 µM.

**Q.** How did the IC50 turn out when `CCN(C(=O)[C@@H](N)Cc1ccccc1)[C@H](Cc1ccc(O)cc1)C(=O)NCc1ccc2ccccc2c1` [R-(4-hydroxybenzyl)] was run?
**A.** Its IC50 is 540 µM.

**Q.** Which IC50 does the source give for `NC(Cc1cn(Cc2ccc3ccccc3c2)c2ccccc12)C(=O)N(Cc1ccc2ccccc2c1)C(Cc1cn(Cc2ccccc2)c2ccccc12)C(=O)NCc1ccccc1` (stereo not drawn) [R-(N'-benzylindol-3-ylmethyl)] here?
**A.** The IC50 was 552 µM.

**Q.** For `NC(Cc1cn(Cc2ccc3ccccc3c2)c2ccccc12)C(=O)N(Cc1ccc2ccccc2c1)C(CC1CCCCC1)C(=O)NCc1ccccc1` (stereo not drawn) [R-(cyclohexylmethyl)], which IC50 is on record?
**A.** Its IC50 is > 1000 µM.

**Q.** `N[C@@H](Cc1cn(Cc2ccc3ccccc3c2)c2ccccc12)C(=O)N(Cc1ccc2ccccc2c1)[C@H](Cc1ccc2ccccc2c1)C(=O)NCc1ccccc1` [R-(napth-2-ylmethyl)] was tested. Which IC50 did it give?
**A.** Its IC50 is > 1000 µM.

**Q.** For `NC(Cc1cn(Cc2ccc3ccccc3c2)c2ccccc12)C(=O)N(Cc1ccc2ccccc2c1)C(CO)C(=O)NCc1ccccc1` (stereo not drawn) [S-(1-hydroxymethyl)], which IC50 is on record?
**A.** The IC50 was 176 µM.

**Q.** `N[C@@H](Cc1cn(Cc2ccc3ccccc3c2)c2ccccc12)C(=O)N(Cc1ccc2ccccc2c1)[C@@H](CCC(=O)O)C(=O)NCc1ccccc1` [S-(2-carboxyethyl)] was tested. Which IC50 did it give?
**A.** The IC50 was > 1000 µM.

**Q.** How did the IC50 turn out when `N[C@@H](Cc1cn(Cc2ccc3ccccc3c2)c2ccccc12)C(=O)N(Cc1ccc2ccccc2c1)[C@@H](Cc1cn(Cc2ccccc2)c2ccccc12)C(=O)NCc1ccccc1` [S-(N'-benzylindol-3-ylmethyl)] was run?
**A.** The IC50 was 632 µM.

**Q.** For `CCN(C(=O)[C@@H](N)Cc1ccccc1)[C@@H](Cc1ccc2ccccc2c1)C(=O)NCc1ccc2ccccc2c1` [S-(napth-2-ylmethyl)], which IC50 is on record?
**A.** Its IC50 is > 1000 µM.

**Q.** Which IC50 does the source give for `CCN(C(=O)[C@@H](N)Cc1ccccc1)[C@H](C(=O)NCc1ccc2ccccc2c1)c1ccccc1` [S-(phenyl)] here?
**A.** Its IC50 is 184 µM.

**Q.** How did the IC50 turn out when `N[C@@H](Cc1cn(Cc2ccc3ccccc3c2)c2ccccc12)C(=O)N(CCC(=O)NCc1ccccc1)Cc1ccc2ccccc2c1` [hydrogen atom, AA = 1] was run?
**A.** The IC50 was 770 µM.
